Assay results from patent US20160050895A1, “TRANSGENIC NON-HUMAN ORGANISMS WITH NON-FUNCTIONAL TSPO GENES” (AUSTRALIAN NUCLEAR SCIENCE AND TECHNOLOGY ORGANIZATION, priority 2013, published 2016).
Entries after “also recorded” stand apart in the source; their conditions may differ.

Experiments:
TSPO [1] = assay: Film autoradiography of brain sections after facial nerve axotomy; assay type: binding, mouse; conditions: TSPO-/- mice
From the text: Procedures for facial nerve axotomy were approved by the animal ethics committee at the University of Sydney. Animals were anaesthetised using Isoflurane anaesthesia. Animals were monitored for a combination of respiration, heart rate, oxygen saturation and temperature during procedures using a variety of monitoring equipment to ensure anaesthetic depth. The surgical process commenced when foot-pad or plantar reflex could no longer be elicited. The fur on the ipsilateral (right) side of the neck was shaved from the ear downwards, and the skin cleaned using 70% ethanol. A small incision (0.5-0.7 cm in length) overlying the musculature covering the stylomastoid foramen was made. The facial nerve was identified, isolated and then transected completely. The skin of incision was closed with heal-glue. […] The animals were euthanized with CO2 3 days after the axotomy and brain tissue, including facial nerve nuclei in the brain stem and cerebellum, was immediately dissected, snap-frozen in liquid nitrogen, and then stored in −80° C. freezer until the cryostat section.
A small incision (0.5-0.7 cm) in the skin 0.5 cm dorsal and lateral to the ear was made and the facial nerve transected under an operating microscope. The incision was closed with 3M™ Vetbond™ Tissue Adhesive (St. Paul, Minn., USA). […] Mice were monitored carefully and euthanized with CO2 three days after the operation. Brains were dissected, placed in OCT, transferred to liquid nitrogen, and stored at −80° C. until cryo-sectioning.
Tissue sections from TSPO^+/+, TSPO^+/− and TSPO^−/− mice were incubated at room temperature for 20 min in 170 mM Tris-HCl pH 7.4 containing 1 nM [^3H]PK11195 (specific activity 84 Ci/mmol; Perkin Elmer, Waltham, Mass., USA), washed twice for 5 min in 170 mM Tris-HCl, rinsed with 3 dips in ice-cold MilliQ H2O, and dried. […] Displacement binding was carried out in the presence of PK11195 (10 μM), CLINDE (10 μM) and PBR-11 (10 μM).

TSPO [2] = target: TSPO (Mus musculus, UniProt P50637); assay: Radioligand membrane saturation binding with 3H-PK11195; parameters: Snap-frozen tissues were sectioned at 20 μm in a cryostat; from tissue; host or cells: mouse organ sections (brain, retina/eye, heart, adrenal, kidney, testis, spleen), C57BL/6 background; conditions: testicular and kidney tissue; TSPO+/- mice compared to TSPO+/+ mice
Method: Tissue samples were homogenised with T25 digital Ultra-Turrax homogenizer (Ika, Wilmington, N.C., USA) at speed setting 5 or 20000 rpm in approximately 45 mL of ice-cold TRIS buffer (pH 7.4), collected by centrifugation at 48000 g and the supernatant was then discarded. The procedure was then immediately repeated, this acts as an extra wash step to remove any soluble interfering substances to radioligand binding (Byland et al. 1993). Following the second centrifugation and removal ofsupernatant the samples were resuspended in approximately 50 volumes of ice-cold TRIS buffer (pH 7.4). Samples were aliquoted stored in −80° C. until required.
For TSPO knock-out mice studies, radioligand binding was performed using 3H-PK11195 racemate across a range of concentrations (FIG. 4). PK11195 is a TSPO specific probe. Total and non-specific binding was determined through 8 concentrations of 3H-PK11195 ranging from 0.56 nM to 20 nM. Non-specific binding was determined by the addition of 5 μM PK11195 to all concentrations of 3H-PK11195. […]
Organs were homogenised, washed twice in ice-cold 50 mM Tris-HCl (pH 7.4) by centrifugation at 48000×g, resuspended in 50 volumes of ice-cold 50 mM Tris-HCl, and protein concentration was determined using a BCA protein assay kit (Thermo Fisher Scientific). […] Non-specific binding was determined with 5 μM PK11195. […]

What does the source list for CC[C@@H](C)N(C)C(=O)c1cc2ccccc2c(-c2ccccc2Cl)n1 [[^3H]PK11195]?
TSPO ligand binding in the injured facial nucleus (TSPO [1]; after facial nerve axotomy, activated microglia present): no binding; also recorded: not associated with an increase in the binding; selectivity in pathologically changed tissue (TSPO [1]; injured facial nucleus): high selectivity; also recorded: holds true; Specific binding using [3H]PK11195 (TSPO [2]): approximately half the signal
